# Measured values from US7037656B2, “Methods and compositions for identifying ligands for nuclear receptors” (priority 2000, dated 2006).
# Biological target: T1, Cf ΔA/B EcR + RXR α + GRIP1 (Choristoneura fumiferana, UniProt O77240)
# T1 construct: human ubiquitin (76 aa) (N, cleaved yes); expressed in transfected cells; host or cells: yeast (Saccharomyces cerevisiae)
# Test: Yeast 6x EcRE-lacZ β-galactosidase transactivation assay
# Format: cell-based, Choristoneura fumiferana; human
# Conditions: RH 5992 10 μM, 4 hours, DMSO control 0.270
# Procedure: The human RXR α (Genbank accession number X52773), mouse RXR β (Genbank accession number X66224) or mouse RXR γ (Genebank accession number X66225) subtypes were expressed in yeast-E. coli multicopy 2μ expression plasmids under regulation of CUP1 promoter with the LEU2 selective marker (1).
# Briefly, yeast cells are cultured in 5 mL of YPD liquid medium overnight at 30° C. The cell culture was diluted 1:20 in YPD media and further grown until cell density reached an O.D of 0.6. at OD600. The cells were pelleted by centrifugation and washed with 10 mL of TE+0.1M lithium acetate. Cells are then resuspended in 10 mL TE+0.1M lithium acetate and incubated at 30° C. for 1 hour. Cells are collected and resuspended in 0.5 mL of TE+ 0.1M lithium acetate. Aliquots of cells (50 μL), were incubated for 15 minutes at 30° C. with 1–2 μg plasmid DNA in the presence of 5 μg of denatured salmon sperm DNA as DNA carrier. In the case of co-transformation, the indicated plasmids were added simultaneously. 50% polyethyleneglycol of molecular weight 4000, diluted in TE, was added to a final concentration of 35%. DMSO was added to the transformation solution simultaneously to a final concentration 3%. The samples were mixed well by vortexing and incubated for an additional 30 minutes at 30° C. The cell mixture is then heated for 15 minutes at 42° C. […]
# T1 sequence (O77240 entry or part of it, stated change not applied): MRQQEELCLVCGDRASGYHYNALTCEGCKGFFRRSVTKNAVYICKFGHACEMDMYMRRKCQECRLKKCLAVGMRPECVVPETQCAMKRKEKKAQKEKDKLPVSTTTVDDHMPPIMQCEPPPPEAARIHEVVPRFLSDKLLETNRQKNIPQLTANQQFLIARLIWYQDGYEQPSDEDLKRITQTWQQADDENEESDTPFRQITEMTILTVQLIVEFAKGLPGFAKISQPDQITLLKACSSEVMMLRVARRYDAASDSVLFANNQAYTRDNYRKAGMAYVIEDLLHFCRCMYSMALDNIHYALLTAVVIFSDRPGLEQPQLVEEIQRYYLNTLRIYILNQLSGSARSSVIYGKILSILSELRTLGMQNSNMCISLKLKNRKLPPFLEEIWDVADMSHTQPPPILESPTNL
# T1 sequence (P19793 whole entry partner): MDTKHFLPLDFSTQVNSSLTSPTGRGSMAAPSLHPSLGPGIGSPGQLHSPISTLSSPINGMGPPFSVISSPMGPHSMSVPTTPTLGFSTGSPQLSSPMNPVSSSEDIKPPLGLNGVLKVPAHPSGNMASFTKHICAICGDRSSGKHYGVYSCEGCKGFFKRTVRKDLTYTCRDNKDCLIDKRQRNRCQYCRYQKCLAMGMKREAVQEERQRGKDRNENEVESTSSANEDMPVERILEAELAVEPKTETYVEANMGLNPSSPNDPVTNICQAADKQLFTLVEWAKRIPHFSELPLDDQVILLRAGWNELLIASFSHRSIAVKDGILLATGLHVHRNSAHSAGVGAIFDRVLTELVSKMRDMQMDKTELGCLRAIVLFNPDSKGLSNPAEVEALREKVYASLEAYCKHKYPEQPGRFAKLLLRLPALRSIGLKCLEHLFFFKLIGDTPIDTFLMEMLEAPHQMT
compound,measurement,value
"CCc1ccc(C(=O)NN(C(=O)c2cc(C)cc(C)c2)C(C)(C)C)cc1 [RH 5992, tebufenozide]",β-galactosidase activity,2.063
